Patent US8309721B2, “HSP90 inhibitory carbazole derivatives, compositions containing same and use thereof” (Sanofi, priority 2008, dated 2012)
Counter-ions that a name gives are not always drawn.

What follows are compounds tested on Her2 receptor expression at the surface of SKBr3 cells (assay: phenotypic SKBr3/HER2 cell test (Her2 surface expression by flow cytometry)). Settings: 24 h incubation, inhibition of Her2 expression.
Assay type: cell-based
Method: The cellular activity of the compounds can in particular be evaluated by means of the phenotypic “SKBr3/HER2” cell test described below:
The SKBr3 […] adenocarcinoma cells, overexpressing the Her2 tyrosine kinase receptor, originate from the ATCC (HTB-30) and are cultured in McCoy's 5A medium supplemented with 10% FBS and 1% L-glutamine.
The cells are seeded in 12-well plates at a proportion of 125 000 cells per well in 1 ml of complete medium. The following day, the products are added at varying concentrations. After incubation for 24 h, the cells are trypsinized, washed with PBS and incubated with 100 ng of anti-Her2 antibody coupled to PE (Phycoerythrin) (BD 340552) for 30 minutes at 4° C. in the dark. The fluorescence due to the expression of the Her2 receptor at the surface of the cells is then read using a FACS Calibur flow cytometer (Becton-Dickinson). The percentage inhibition of Her2 expression as a function of the concentrations of product tested is fitted by the nonlinear regression technique (XLfit, equation 205) in order to measure an IC50 for each product.

Structure (SMILES)	IC50 [nM]
NC(=O)c1ccc(-n2c3ccccc3c3c(-c4nc5cc(F)ccc5[nH]4)cccc32)cc1N[C@H]1CCCC[C@@H]1CO (single isomer, unassigned) [Example 131]	< 1000

Same assay, conditions: Homo sapiens, SK-BR-3, 24 h incubation, inhibition of Her2 expression

Structure (SMILES)	IC50 [nM]
NC(=O)c1ccc(-n2c3ccccc3c3c(-c4nc5ccc(F)cc5[nH]4)cccc32)cc1N[C@H]1CCCC[C@H]1CO (racemic) [Example 96]	< 1000
NC(=O)c1ccc(-n2c3ccccc3c3c(-c4nc5ccc(F)cc5[nH]4)cccc32)cc1NC[C@@H]1CCCC[C@@H]1O (racemic) [Example 93]	< 1000
NC(=O)c1ncc(-n2c3ccccc3c3c(-c4cnc5ccccc5c4)cccc32)cc1NCCF [Example 129, 3-(2-fluoroethylamino)-5-[4-(quinolin-3-yl)-9H-carbazol-9-yl]pyridine-2-carboxamide]	< 1000
NC(=O)c1ccc(-n2c3ccccc3c3c(-c4nc5ccc(F)cc5[nH]4)cccc32)cc1N[C@H]1CCCC[C@@H]1CO (racemic) [Example 97]	< 1000
CN(C)CC(=O)O[C@H]1CC[C@H](Nc2cc(-n3c4ccccc4c4c(-c5nc6ccc(F)cc6[nH]5)cccc43)ccc2C(N)=O)CC1 [Example 140, dimethylaminoacetic acid 4-trans-{2-carbamoyl-5-[4(6-fluoro-1H-benzimidazol-2-yl)carbazol-9-yl]phenylamino}cyclohexyl ester]	< 1000
NC(=O)c1ccc(-n2c3ccccc3c3c(-c4cnc5ccccc5c4)cccc32)cc1NCCc1cccnc1 [Example 107, 2-[2-(pyridin-3-yl)ethylamino]-4-[4-(quinolin-3-yl)-9H-carbazol-9-yl]benzamide]	< 1000
NC(=O)c1ccc(-n2c3ccccc3c3c(-c4cnc5ccccc5c4)cccc32)cc1NC1CCCC(O)C1 [Example 109, 2-(3(R,S)-hydroxycyclohexyl-1(R,S)-amino)-4-[4-(quinolin-3-yl)-9H-carbazol-9-yl]benzamide]	< 1000
N#Cc1ccc(-c2cccc3c2c2ccccc2n3-c2ccc(C(N)=O)c(NCCF)c2)cn1 [Example 134, 4-[4-(6-cyanopyridin-3-yl)-9H-carbazol-9-yl]-2-[(2-fluoroethyl)amino]benzamide]	< 1000
NC(=O)c1ccc(-n2c3ccccc3c3c(-c4nc5ccc(F)cc5[nH]4)cccc32)cc1NCc1cocn1 [Example 92, 4-[4-(6-fluoro-1H-benzimidazol-2-yl)-9H-carbazol-9-yl]-2-[(oxazol-4-ylmethyl)amino]benzamide]	< 1000
NC(=O)c1ncc(-n2c3ccccc3c3c(-c4cnc5ccccc5c4)cccc32)cc1NCCc1ccccn1 [Example 133, 3-[(2-pyridin-2-yl)ethylamino)-5-[4-(quinolin-3-yl)-9H-carbazol-9-yl]pyridine-2-carboxamide]	< 1000
NC(=O)c1ccc(-n2c3ccccc3c3c(-c4cnc5ccccc5c4)cccc32)cc1N[C@H]1CCCC[C@@H]1CO (racemic) [Example 100, 2-[1(R,S),2(R,S)-2-hydroxymethyl-cyclohexyl-1-amino]-4-[4-(quinolin-3-2-yl)-9H-carbazol-9-yl]benzamide]	< 1000
COCCCOc1cc(-n2c3ccccc3c3c(-c4nc5ccc(F)cc5[nH]4)cccc32)ccc1C(N)=O [Example 60, 4-[4-(6-fluoro-1H-benzimidazol-2-yl)-9H-carbazol-9-yl]-2-(3-methoxypropoxy)benzamide]	1000 to 10000
CN1C2CCC1CC(Nc1cc(-n3c4ccccc4c4c(-c5ccc(C#N)nc5)cccc43)ccc1C(N)=O)C2 (stereo not shown) [Example 135, 4-[4-(6-cyanopyridin-3-yl)-9H-carbazol-9-yl]-2-[(8-methyl-8-azabicyclo[3.2.1]oct-3-yl)amino]benzamide]	< 1000
NC(=O)c1ccc(-n2c3ccccc3c3c(-c4nc5ccc(F)cc5[nH]4)cccc32)cc1NCC1(O)CCCC1 [Example 111, 4-[4-(6-fluoro-1H-benzimidazol-2-yl)-9H-carbazol-9-yl]-2-[(1-hydroxycyclopentan-1-yl)methylamino]benzamide]	< 1000
NC(=O)c1ncc(-n2c3ccccc3c3c(-c4cnc5ccccc5c4)cccc32)cc1NC1CCOCC1 [Example 116]	< 1000
CN1CCC(O)(CNc2cc(-n3c4ccccc4c4c(-c5nc6ccc(F)cc6[nH]5)cccc43)ccc2C(N)=O)CC1 [Example 102, [4-(6-fluoro-1H-benzimidazol-2-yl)-9H-carbazol-9-yl]-2-[(4-hydroxy-1-methylpiperidin-4-ylmethyl)amino]benzamide]	1000 to 10000
NC(=O)c1ccc(-n2c3ccccc3c3c(-c4nc5ccc(F)cc5[nH]4)cccc32)cc1N[C@@H]1CN2CCC1CC2 [Example 99, 2-{(S)-(1-azabicyclo[2.2.2]oct-3-yl)amino}-4-[4-(6-fluoro-1H-benzimidazol-2-yl)-9H-carbazol-9-yl]benzamide]	< 1000

Structure (SMILES)	IC50 [nM]
NC(=O)c1ccc(-n2c3ccccc3c3c(-c4nc5ccc(F)cc5[nH]4)cccc32)cc1N[C@H]1CN2CCC1CC2 [Example 98, 2-{(R)-(1-azabicyclo[2.2.2]oct-3-yl)amino}-4-[4-(6-fluoro-1H-benzimidazol-2-yl)-9H-carbazol-9-yl]benzamide]	< 1000
NC(=O)c1ccc(-n2c3ccccc3c3c(-c4cncc(O)c4)cccc32)cc1NCCCO [Example 141, 2-[(3-hydroxypropyl)amino]-4-[4-(5-hydroxypyridin-3-yl)-9H-carbazol-9-yl]benzamide]	< 1000
Cn1cnc(CCNc2cc(-n3c4ccccc4c4c(-c5nc6ccc(F)cc6[nH]5)cccc43)ccc2C(N)=O)c1 [Example 117, 4-[4-(6-fluoro-1H-benzimidazol-2-yl)-9H-carbazol-9-yl]-2-[(1-methyl-1H-imidazol-4-yl)ethylamino]benzamide]	< 1000
NC(=O)c1ccc(-n2c3ccccc3c3c(-c4cnc5ccccc5c4)cccc32)cc1NC[C@@H]1CCCC[C@@H]1O (racemic) [Example 95]	< 1000
NC(=O)c1ccc(-n2c3ccccc3c3c(-c4nc5ccc(F)cc5[nH]4)cccc32)cc1NCCCF [Example 75, 4-[4-(6-fluoro-1H-benzimidazol-2-yl)-9H-carbazol-9-yl]-2-(3-fluoropropylamino)benzamide]	< 1000
NC(=O)c1ccc(-n2c3ccccc3c3c(-c4cnc5ccccc5c4)cccc32)cc1NCCF [Example 77, 2-(2-fluoroethylamino)-4-[4-(quinolin-3-yl)-9H-carbazol-9-yl]benzamide]	< 1000
CC(C)(O)CNc1cc(-n2c3ccccc3c3c(-c4cnc5ccccc5c4)cccc32)ccc1C(N)=O [Example 91, (2-hydroxy-2-methylpropylamino)-4-[4-(quinolin-3-yl)-9H-carbazol-9-yl]-2-benzamide]	< 1000
CN1C(C)(C)CC(Nc2cc(-n3c4ccccc4c4c(-c5cnc6ccccc6c5)cccc43)ccc2C(N)=O)CC1(C)C [Example 88, (1,2,2,6,6-pentamethyl-1H-piperidin-4-ylamino]-4-[4-(quinolin-3-yl)-9H-carbazol-9-yl]-2-benzamide]	< 1000
NC(=O)c1ccc(-n2c3ccccc3c3c(-c4ccc(C(F)(F)F)nc4)cccc32)cc1N[C@H]1CC[C@H](O)CC1 [Example 74, 2-[(4-trans-hydroxycyclohexyl)amino]-4-{4-[6-(trifluoromethyl)pyridin-3-yl]-9H-carbazol-9-yl}benzamide]	1000 to 10000
NC(=O)c1ccc(-n2c3ccccc3c3c(-c4cnc5ccccc5c4)cccc32)cc1NCc1ccccn1 [Example 86, 2-[(pyridin-2-ylmethyl)amino]-4-[4-(quinolin-3-yl)-9H-carbazol-9-yl]benzamide]	< 1000
NC(=O)c1ccc(-n2c3ccccc3c3c(-c4cnc5ccccc5c4)cccc32)cc1N[C@H]1CN2CCC1CC2 [Example 108, 2-((R)-(1-azabicyclo[2.2.2]oct-3-yl)amino)-4-[4-(quinolin-3-yl)-9H-carbazol-9-yl]benzamide]	< 1000
NC(=O)c1ccc(-n2c3ccccc3c3c(-c4cnc5ccccc5c4)cccc32)cc1NCCc1ccccn1 [Example 80, 4-[4-(quinolin-3-yl)-9H-carbazol-9-yl]-2-[2-(pyridin-2-yl)ethylamino]benzamide]	< 1000
NC(=O)c1ccc(-n2c3ccccc3c3c(-c4nc5ccc(F)cc5[nH]4)cccc32)cc1NC1CCCC(O)C1 [Example 89, 4-[4-(6-fluoro-1H-benzimidazol-2-yl)-9H-carbazol-9-yl]-2-(3(R,S)-hydroxycyclohexyl-1(R,S)-amino)benzamide]	< 1000
NC(=O)c1ccc(-n2c3ccccc3c3c(-c4nc5ccc(F)cc5[nH]4)cccc32)cc1NCc1cccnc1 [Example 104, 4-[4-(6-fluoro-1H-benzimidazol-2-yl)-9H-carbazol-9-yl]-2-[(pyridin-3-ylmethyl)amino]benzamide]	< 1000
CC(C)(O)CCNc1cc(-n2c3ccccc3c3c(-c4ccc(C#N)nc4)cccc32)ccc1C(N)=O [Example 125, 4-[4-(6-cyanopyridin-3-yl)-9H-carbazol-9-yl]-2-[(3-hydroxy-3-methylbutyl)amino]benzamide]	< 1000
NC(=O)c1ccc(-n2c3ccccc3c3c(-c4cnc5ccccc5c4)cccc32)cc1NC1CCNCC1 [Example 124, 2-(piperidin-4-ylamino)-4-[4-(quinolin-3-yl)-9H-carbazol-9-yl]benzamide hydrochloride]	< 1000
